Laboratory results as given in patent US20240368133A1, “Compounds for the Treatment of Pain, in Particular, Neuropathic Pain, and/or Other Diseases or Disorders that are Associated with AT2R and/or AT2R Mediated Signaling” (Confo Therapeutics N.V., priority 2021, published 2024).

Experiments:
human AT2R fused to Cb23 = human AT2R fused to Cb23 (Homo sapiens, UniProt P50052); assay: Radioligand binding assay, displacement of 125I-[Sar1, Ile8]-Angiotensin II, hAT2R Cb23; details: displacement of 125I-[Sar1, Ile8]-Angiotensin II, human AT2R fused to Cb23, HEK-293 cell membrane preparations; read-out: Binding affinity on hAT2R_Cb23 IC50
human AT2R fused to Cb23, sequence (P50052 whole entry, looked up, the tested form may be a part): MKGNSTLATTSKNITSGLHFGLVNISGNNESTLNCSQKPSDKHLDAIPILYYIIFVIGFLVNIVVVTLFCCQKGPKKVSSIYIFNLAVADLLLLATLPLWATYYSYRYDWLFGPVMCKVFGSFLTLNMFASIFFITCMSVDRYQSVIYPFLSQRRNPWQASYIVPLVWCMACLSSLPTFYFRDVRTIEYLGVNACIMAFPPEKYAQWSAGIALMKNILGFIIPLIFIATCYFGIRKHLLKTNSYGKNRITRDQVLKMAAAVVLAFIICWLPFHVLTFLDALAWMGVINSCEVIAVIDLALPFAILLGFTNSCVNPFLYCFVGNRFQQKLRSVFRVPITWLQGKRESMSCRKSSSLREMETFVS
How it was run: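 Membranes from HEK-293 cells expressing human AT2R fused to Cb23 were incubated with 0.05 nM 125I-[Sar1, Ile8]-Angiotensin II in 100 μL buffer (50 mM Tris, 5 mM MgCl2, 1 mM EDTA, 0.1% BSA, pH 7.4) for one hour at 25° C. Ligands were tested as eight-point dose-response curves in duplicate, with C21 and Angiotensin II as references.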

human AT1R = human AT1R (Homo sapiens (Human), UniProt P30556); assay: Counterscreen radioligand binding assay, displacement of 125I-[Sar1, Ile8]-Angiotensin II, hAT1R WT; details: for inhibition at 1 µM / inhibition at 10 µM: 125I-[Sar1, Ile8]-Ang II, semi-quantitative score; for inhibition at 1 µM: compound at 1 μM, read-out: % Displaced radioligand at 1 μM; for inhibition at 10 µM: compound at 10 μM, read-out: % Displaced radioligand at 10 μM; for IC50: HEK-293 cell membranes, read-out: Binding affinity On hAT1R IC50
human AT1R, sequence (P30556 whole entry, the tested form may be a part): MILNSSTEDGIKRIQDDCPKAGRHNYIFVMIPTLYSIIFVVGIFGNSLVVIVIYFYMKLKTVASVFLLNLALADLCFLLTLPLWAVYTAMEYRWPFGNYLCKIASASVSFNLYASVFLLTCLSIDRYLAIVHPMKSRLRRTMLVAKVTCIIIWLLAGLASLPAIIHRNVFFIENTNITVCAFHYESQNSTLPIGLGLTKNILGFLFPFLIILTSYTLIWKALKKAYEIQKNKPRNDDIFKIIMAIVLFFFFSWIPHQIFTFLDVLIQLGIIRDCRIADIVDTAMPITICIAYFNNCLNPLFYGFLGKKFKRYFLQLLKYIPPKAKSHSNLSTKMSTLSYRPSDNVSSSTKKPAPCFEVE
Procedure: All synthesized ligands were evaluated in a radioligand assay by displacing ^125I-[Sar1, Ile8]-Angiotensin II (Perkin Elmer, NEX248050UC) from human AT2R fused to Cb23 or human/rodent/cynomolgus/minipig/dog WT AT2R in HEK-293 cells membrane preparations, using C21 (Vicore Pharma) and Angiotensin II (endogenous ligand) as reference. The affinity was determined using an eight-point dose-response curve, each point performed in duplicates. The compounds were also evaluated in a counterscreen binding assay for displacement of ^125I-[Sar1, Ile8]-Angiotensin II binding to human AT1R in HEK-293 cell membranes. For AT1R, the percent displacement was determined at 1 μM and […] (in duplicates) or using an eight-point dose-response curve, each point performed in duplicates with Candesartan and Losartan used as reference.
For the AT2R/AT1R binding assays, cell membranes, expressing AT2R_Cb23, AT2R or AT1R, were incubated with 0.05 nM ^125I-[Sarl, Ile8]-Ang II. The ligand competition assay was performed in a total volume of 100 μL assay buffer (50 mM Tris, 5 mM MgCl2, 1 mM EDTA, 0.1% BSA, pH 7.4), at concentrations ranging from […] to 10 μM. For each experiment, each ligand concentration was tested in duplicate. Non-specific binding (NSB) was determined by the inclusion of 10 μM unlabeled [Sarl]-Ang II (Sigma Aldrich). The reaction was initiated by the addition of radioligand, after which the plates were incubated at 25° C. for one hour. The reaction was terminated by rapid filtration using a vacuum harvester, applying six washes with 100 μL of ice-cold wash buffer (50 mM Tris.HCl, pH 7.4). The filter plates GF/C (Perkin Elmer) were pre-soaked in 0.5% PEI. The residual amount of radioactivity was determined via liquid scintillation counting. IC50 values, representing the concentration at which each ligand displaced 50% of ^125I-[Sarl, Ile8]-Ang II, were calculated using GraphPad Prism 7.02 by applying a Non-linear regression equation (variable slope, four parameters) on the data. The obtained values serve as affinity estimates for each ligand and their ability to compete against the radioligand for binding with AT2R or AT1R, respectively.

SMILES | IC50 (human AT2R fused to Cb23) [nM] | inhibition at 1 µM (human AT1R) [%] | inhibition at 10 µM (human AT1R) [%] | IC50 (human AT1R) [µM]
CCS(=O)(=O)NC(=O)c1ccc(OCC(C)C)cc1N1CCN(Cc2nc3ccccc3s2)CC1 [Compound A-43, 2-[4-(1,3-benzothiazol-2-ylmethyl)piperazin-1-yl]-N-ethylsulfonyl-4-isobutoxy-benzamide] | 4380 | < 30 | 30 to 50 | –
c1ccc2sc(CN3CCN(c4cc(C5CC5)ccc4-c4nn[nH]n4)CC3)nc2c1 [Compound A-47, 2-[[4-[5-cycloprop-yl-2-(2H-tetrazol-5-yl)phenyl]piperazin-1-yl]methyl]-1,3-benzothiazole] | 1070 | < 30 | < 30 | –
CC(C)Cc1ccc(-c2nn[nH]n2)c(N2CCN(c3nc4ccccc4s3)CC2)c1 [Compound A-49, 2-[4-[5-isobutyl-2-(2H-tetrazol-5-yl)-phenyl]piperazin-1-yl]-1,3-benzo-thiazole] | 2340 | < 30 | 30 to 50 | 20.3
CC(C)Oc1ccc(-c2nn[nH]n2)c(CN2CCN(c3nc4ccccc4s3)CC2)c1 [Compound A-50, 2-[4-[[5-isoprop-oxy-2-(2H-tetrazol-5-yl)phenyl]meth-yl]piperazin-1-yl]-1,3-benzothiazole] | 10500 | < 30 | – | 28.8
c1ccc2sc(CN3CCN(c4cc(OC5CC5)ccc4-c4nn[nH]n4)CC3)nc2c1 [Compound A-52, 2-[[4-[5-(cyclopropoxy)-2-(2H-tetrazol-5-yl)phenyl]piperazin-1-yl]methyl]-1,3-benzothiazole] | 4420 | < 30 | < 30 | –
CC(C)COc1ccc(-c2nn[nH]n2)c(N2CCN(Cc3nc4ccccc4s3)CC2)c1 [Compound A-53, 2-[[4-[5-isobutoxy-2-(2H-tetrazol-5-yl)phenyl]piperazin-1-yl]methyl]-1,3-benzothiazole] | 7600 | < 30 | < 30 | 45.6
c1ccc2sc(CN3CCN(c4cc(OCC5CC5)ccc4-c4nn[nH]n4)CC3)nc2c1 [Compound A-54, 2-[[4-[5-(cyclo-propylmethoxy)-2-(2H-tetrazol-5-yl)-phenyl]piperazin-1-yl]methyl]-1,3-benzothiazole] | 2070 | < 30 | < 30 | 31
FC(F)COc1ccc(-c2nn[nH]n2)c(N2CCN(Cc3nc4ccccc4s3)CC2)c1 [Compound A-55, 2-[[4-[5-(2,2-difluoroethoxy)-2-(2H-tetrazol-5-yl)-phenyl]piperazin-1-yl]methyl]-1,3-benzothiazole] | 2270 | < 30 | < 30 | 39.7
c1ccc2sc(CN3CCN(c4cc(OC5CCCC5)ccc4-c4nn[nH]n4)CC3)nc2c1 [Compound A-57, 2-[[4-[5-(cyclo-pentoxy)-2-(2H-tetrazol-5-yl)-phenyl]piperazin-1-yl]methyl]-1,3-benzothiazole] | 1900 | < 30 | < 30 | 34.5
c1ccc2sc(CN3CCN(c4cc(N5CCCCC5)ccc4-c4nn[nH]n4)CC3)nc2c1 [Compound A-65, 2-((4-(5-(piperidin-1-yl)-2-(2H-tetrazol-5-yl)phenyl)piperazin-1-yl)methyl) benzo[d]thiazole] | 1850 | < 30 | < 30 | 60.8
c1ccc2sc(CN3CCN(c4cc(N5CCOCC5)ccc4-c4nn[nH]n4)CC3)nc2c1 [Compound A-67, 4-[3-[4-(1,3-benzo-thiazol-2-ylmethyl)-piperazin-1-yl]-4-(2H-tetrazol-5-yl)-phenyl]morpholine] | 7110 | < 30 | < 30 | –

Further lines, results first:

IC50 (human AT2R fused to Cb23) [nM] | inhibition at 1 µM (human AT1R) [%] | inhibition at 10 µM (human AT1R) [%] | IC50 (human AT1R) [µM] | SMILES
6580 | < 30 | < 30 | – | CCS(=O)(=O)NC(=O)c1ccc(OC)cc1N1CCN(Cc2nc3ccccc3s2)CC1 [Compound A-37, 2-[4-(1,3-benzothiazol-2-ylmethyl)piperazin-1-yl]-N-ethylsulfonyl-4-methoxy-benzamide]
2400 | < 30 | 30 to 50 | 13.6 | CCOc1ccc(C(=O)NS(=O)(=O)CC)c(N2CCN(Cc3nc4ccccc4s3)CC2)c1 [Compound A-38, 2-[4-(1,3-benzothiazol-2-ylmethyl)piperazin-1-yl]-4-ethoxy-N-ethylsulfonyl-benzamide]
2810 | < 30 | < 30 | – | CCS(=O)(=O)NC(=O)c1ccc(OC(C)C)cc1CN1CCN(c2nc3ccccc3s2)CC1 [Compound A-39, 2-[[4-(1,3-benzothiazol-2-yl)piperazin-1-yl]methyl]-N-ethylsulfonyl-4-isopropoxy-benzamide]
5870 | < 30 | < 30 | 36.6 | CCS(=O)(=O)NC(=O)c1ccc(OC(C)C)cc1N1CCN(Cc2nc3ccccc3s2)CC1 [Compound A-40, 2-[4-(1,3-benzothiazol-2-ylmethyl)piperazin-1-yl]-N-ethylsulfonyl-4-isopropoxy-benzamide]
2540 | < 30 | 30 to 50 | 16.5 | CCS(=O)(=O)NC(=O)c1ccc(OC2CC2)cc1N1CCN(Cc2nc3ccccc3s2)CC1 [Compound A-41, 2-[4-(1,3-benzothiazol-2-ylmethyl)piperazin-1-yl]-4-(cyclopropoxy)-N-ethylsulfonyl-benzamide]
17700 | < 30 | 30 to 50 | 26.3 | CCCOc1ccc(C(=O)NS(=O)(=O)CC)c(N2CCN(Cc3nc4ccccc4s3)CC2)c1 [Compound A-42, 2-[4-(1,3-benzothiazol-2-ylmethyl)piperazin-1-yl]-N-ethylsulfonyl-4-propoxy-benzamide]
7180 | < 30 | < 30 | 34.9 | CCNc1ccc(C(=O)NS(=O)(=O)CC)c(N2CCN(Cc3nc4ccccc4s3)CC2)c1 [Compound A-44, 2-[4-(1,3-benzo-thiazol-2-ylmethyl)-piperazin-1-yl]-4-(ethylamino)-N-ethylsulfonyl-benz-amide]
2540 | < 30 | < 30 | 30 | CCc1ccc(-c2nn[nH]n2)c(N2CCN(Cc3nc4ccccc4s3)CC2)c1 [Compound A-45, 2-[[4-[5-ethyl-2-(2H-tetrazol-5-yl)-phenyl]piperazin-1-yl]methyl]-1,3-benzothiazole]
1790 | < 30 | < 30 | – | CC(C)c1ccc(-c2nn[nH]n2)c(N2CCN(Cc3nc4ccccc4s3)CC2)c1 [Compound A-46]
4750 | < 30 | < 30 | – | CCNc1ccc(-c2nn[nH]n2)c(N2CCN(Cc3nc4ccccc4s3)CC2)c1 [Compound A-59, 3-[4-(1,3-benzothi-azol-2-ylmethyl)-piperazin-1-yl]-N-ethyl-4-(2H-tetrazol-5-yl)aniline]
3460 | < 30 | < 30 | – | CC(C)Nc1ccc(-c2nn[nH]n2)c(N2CCN(Cc3nc4ccccc4s3)CC2)c1 [Compound A-60, 3-[4-(1,3-benzothiazol-2-ylmethyl)piperazin-1-yl]-N-isopropyl-4-(2H-tetrazol-5-yl)aniline]
1560 | < 30 | < 30 | 39.7 | c1ccc2sc(CN3CCN(c4cc(NC5CCCC5)ccc4-c4nn[nH]n4)CC3)nc2c1 [Compound A-64, 3-[4-(1,3-benzothi-azol-2-ylmethyl)-piperazin-1-yl]-N-cyclopentyl-4-(2H-tetrazol-5-yl)aniline]
